Results on 17 compounds are retold here after publication PMC11726634, “Probing the Histamine H1 Receptor Binding Site to Explore Ligand Binding Kinetics” (Journal of Medicinal Chemistry, 2024).

Structures can show the parent of a compound that is named as a salt. Where two headings read alike, the source gives them in different places. Bounds are passed on as bounds.

Test [1] deals with T1, human H1R (Homo sapiens, UniProt P35367).
T1 construct: expressed in transfected cells; host or cells: HEK293T cells, transient transfection with pcDEF3, used as cell homogenate
T1 sequence (P35367 whole entry): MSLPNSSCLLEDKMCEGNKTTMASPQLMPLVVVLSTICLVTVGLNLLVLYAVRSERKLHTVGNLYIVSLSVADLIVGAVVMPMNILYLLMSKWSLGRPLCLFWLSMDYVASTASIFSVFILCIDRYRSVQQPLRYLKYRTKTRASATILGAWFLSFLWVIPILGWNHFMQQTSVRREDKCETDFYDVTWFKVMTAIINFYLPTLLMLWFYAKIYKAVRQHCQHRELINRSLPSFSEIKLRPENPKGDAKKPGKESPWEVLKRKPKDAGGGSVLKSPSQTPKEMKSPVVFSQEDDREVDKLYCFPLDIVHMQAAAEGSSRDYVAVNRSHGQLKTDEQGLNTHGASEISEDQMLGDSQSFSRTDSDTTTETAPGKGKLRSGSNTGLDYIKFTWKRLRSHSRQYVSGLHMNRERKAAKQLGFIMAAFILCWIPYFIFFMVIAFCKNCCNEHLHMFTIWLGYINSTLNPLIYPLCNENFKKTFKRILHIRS
The test is described as follows: Competition association binding with [3H]-mepyramine (Motulsky and Mahan model). As to conditions: for KE (kinetic efficiency = RT/N heavy atoms): RT divided by number of heavy atoms; for pKD,calc: calculated from kon and koff of individual experiments. As to the method: Binding in the presence of mianserin was assumed to be the baseline (i.e., t = 0 min). Binding over time was baseline corrected and then analyzed by nonlinear regression using the Motulsky and Mahan model[25] (eq 5). This model assumes that both the radioligand and the unlabeled ligand bind competitively to the same binding site according to a one-step binding mechanism.

The target of test [2] is T1, human H1R. The test is described as follows: [3H]-mepyramine competition binding (radioligand displacement, 4 h) on HEK293T cell homogenates. As to conditions: for pKi: [3H]mepyramine displacement curves after 4 h incubation, HEK293T cell homogenate expressing H1R, 25 °C, mean and SEM, N ≥ 3. Here is the method: Protein content of membrane homogenates was determined using a BCA protein assay. […] Membrane preparation, termination of the binding reaction and quantifying radioactivity as described here, were performed for all binding experiments.Total binding and nonspecific binding (i.e., in the presence of mianserin) was analyzed by nonlinear regression using eqs 1 (nonspecific binding) and 2 (total binding).
These values were converted to Ki values using the Cheng–Prusoff equation.[24]
In general terms: Displacement assays read how much labelled ligand stays bound in the presence of the test substance.

The mark [3] stands for this setting: competitive binding of [3H]mepyramine over time, unlabeled ligand at ±10 times Ki, 25 °C, mean and SEM, N ≥ 3, read-out: koff (converted).
[4] abbreviates: competitive binding of [3H]mepyramine over time, unlabeled ligand at ±10 times Ki, 25 °C, mean and SEM, N ≥ 3.
Where [5] appears, read: compared with fragment 1 (RT 2.0 min).

For `COc1ccc(Cc2ccccc2)c(OC2CCN(C)CC2)c1` [2e, 4-(2-Benzyl-5-methoxyphenoxy)-1-methylpiperidine Fumarate], the “KE (kinetic efficiency = RT/N heavy atoms)” value (“KE” for short) on human H1R [1] stood at 0.09. The “pKD,calc” value at human H1R [1] (mean and SEM, N ≥ 3) is reported as 8.1 ± 0.1. Besides, at human H1R [1] (read-out: koff (converted)), the koff (in general, a measure of how fast the partners let go of each other) was 0.00833 s⁻¹. Also, the association rate constant (kon) (in general, the rate constant with which the complex forms) on human H1R [1] (read-out: kon (converted)) is 1e+06 M⁻¹ s⁻¹. Further, the pKi (as a rule, the negative decadic logarithm of the Ki, by convention in mol/L) at human H1R [2] is 7.8 ± 0.1.
As to `O=C(O)CCN1CCC(Oc2ccccc2Cc2ccccc2)CC1` [4a, 3-(4-(2-Benzylphenoxy)piperidin-1-yl)propanoic Acid Hydrochloride], the “KE” value at human H1R [1] is on record as 0.36. Also, the “pKD,calc” value at human H1R [1] (mean and SEM, N ≥ 3) is recorded as 7.4 ± 0.0. Moreover, the off-rate constant (koff) at human H1R [1] (setting [3]) is 0.00183 s⁻¹. For the same compound, the kon on human H1R [1] (read-out: kon (converted)) was 48300 M⁻¹ s⁻¹. The pKi on human H1R [2] is listed as 7.5 ± 0.1.
Turning to `CN1CCC(Oc2c(CO)cccc2Cc2ccccc2)CC1` [3d, (3-Benzyl-2-((1-methylpiperidin-4-yl)oxy)phenyl)methanol], the “KE” value at human H1R [1] amounted to 0.06. Moreover, at human H1R [1] (mean and SEM, N ≥ 3), the “pKD,calc” value is given as 7.6 ± 0.1. Moreover, the koff at human H1R [1] (setting [3]) was 0.0122 s⁻¹. In addition, the kon on human H1R [1] (read-out: kon (converted)) is 450000 M⁻¹ s⁻¹. The same compound gave a pKi on human H1R [2] of 7.4 ± 0.0. Further, the “lower binding affinity relative to 1” value on human H1R [2] (compared with 1) came out at 10 fold.
On to `CN1CCC(Oc2cc(C(=O)O)ccc2Cc2ccccc2)CC1` [2a, 4-Benzyl-3-((1-methylpiperidin-4-yl)oxy)benzoic Acid], for which the “KE” value on human H1R [1] was found to be 0.05. For the same compound, at human H1R [1] (mean and SEM, N ≥ 3), the “pKD,calc” value is recorded as 4.8 ± 0.1. For the same compound, at human H1R [1] (setting [3]), the off-rate constant (koff) is 0.0167 s⁻¹. For the same compound, the kon at human H1R [1] (read-out: kon (converted)) is 1000 M⁻¹ s⁻¹. The same compound showed a negative logarithm of the Ki (pKi) on human H1R [2] below 5.
For `CN1CCC(Oc2cc(CO)ccc2Cc2ccccc2)CC1` [2d, (4-Benzyl-3-((1-methylpiperidin-4-yl)oxy)phenyl)methanol Hemifumarate], on human H1R [1], the “increase in RT relative to 1” value came out at 2 fold and the “KE” value turned out to be 0.17. The “pKD,calc” value on human H1R [1] (mean and SEM, N ≥ 3) was 8.6 ± 0.0. For the same compound, the “decrease of association rate constant (kon) relative to 1” value at human H1R [1] (compared with 1) turned out to be 2 fold. Moreover, the koff at human H1R [1] (read-out: koff (converted)) is 0.00417 s⁻¹. Further, the on-rate constant (kon) on human H1R [1] (read-out: kon (converted)) is 1.63e+06 M⁻¹ s⁻¹. The same compound yielded a negative logarithm of the Ki (pKi) at human H1R [2] of 8.4 ± 0.1.
Consider `O=C(O)CCCCCCCN1CCC(Oc2ccccc2Cc2ccccc2)CC1` [4f, 8-(4-(2-Benzylphenoxy)piperidin-1-yl)octanoic Acid Hydrochloride], for which, at human H1R [1], the “KE” value amounted to 0.50. The “pKD,calc” value on human H1R [1] (mean and SEM, N ≥ 3) is reported as 7.5 ± 0.0. Further, at human H1R [1] (setting [3]), the koff is 0.00115 s⁻¹. Also, the on-rate constant (kon) on human H1R [1] (read-out: kon (converted)) was 39500 M⁻¹ s⁻¹. For the same compound, on human H1R [2], the pKi is reported as 7.6 ± 0.1.
For `CN1CCC(Oc2c(Cc3ccccc3)cccc2C(=O)O)CC1` [3a, 3-Benzyl-2-((1-methylpiperidin-4-yl)oxy)benzoic Acid], in that order: 0.18, 6.3 ± 0.0, 0.004 s⁻¹, 8330 M⁻¹ s⁻¹ and 6.2 ± 0.1.
`CN1CCC(Oc2c(/C=C/C(=O)O)cccc2Cc2ccccc2)CC1` [3c, (E)-3-(3-Benzyl-2-((1-methylpiperidin-4-yl)oxy)phenyl)acrylic Acid]: on human H1R [1], the “KE” value was determined as 0.12. On human H1R [1] (mean and SEM, N ≥ 3), the “pKD,calc” value was 6.7 ± 0.0. The on-rate (kon) on human H1R [1] (read-out: kon (converted)) was 26700 M⁻¹ s⁻¹. For the same compound, the negative-log Ki (pKi) at human H1R [2] worked out at 6.6 ± 0.1.
For the compound `O=C(O)CCCCCCN1CCC(Oc2ccccc2Cc2ccccc2)CC1` [4e, 7-(4-(2-Benzylphenoxy)piperidin-1-yl)heptanoic Acid Hydrochloride], the “KE” value at human H1R [1] turned out to be 0.45. For the same compound, the “pKD,calc” value on human H1R [1] (mean and SEM, N ≥ 3) is reported as 7.5 ± 0.0. The off-rate constant (koff) on human H1R [1] (setting [3]) was 0.00127 s⁻¹. The kon at human H1R [1] (read-out: kon (converted)) is 41700 M⁻¹ s⁻¹. Further, the pKi at human H1R [2] worked out at 7.7 ± 0.2.
Consider “2-(3-Benzyl-2-((1-methylpiperidin-4-yl)oxy)phenyl)acetic Acid [3b]”, for which the “KE” value at human H1R [1] is given as 0.48. In addition, the “pKD,calc” value on human H1R [1] (mean and SEM, N ≥ 3) was 7.4 ± 0.0. Moreover, on human H1R [1] (setting [4]), the off-rate constant (koff) turned out to be 0.00138 ± 6.7e-05 s⁻¹ and the kon was 2.08 ± 0.10 10^6· M^−1·min^−1. Further, on human H1R [2], the pKi was 7.4 ± 0.1.
As for `O=C(O)CCCN1CCC(Oc2ccccc2Cc2ccccc2)CC1` [4b, 4-(4-(2-Benzylphenoxy)piperidin-1-yl)butanoic Acid Hydrochloride], on human H1R [1], the “KE” value worked out at 0.38. Besides, the “pKD,calc” value on human H1R [1] (mean and SEM, N ≥ 3) is 7.5 ± 0.0. In addition, at human H1R [1] (setting [3]), the dissociation rate constant (koff) is 0.00167 s⁻¹. Further, the kon on human H1R [1] (read-out: kon (converted)) was 48300 M⁻¹ s⁻¹. On human H1R [2], the pKi is 7.6 ± 0.1.
For `CN1CCC(Oc2cc(CC(=O)O)ccc2Cc2ccccc2)CC1` [2b, 2-(4-Benzyl-3-((1-methylpiperidin-4-yl)oxy)phenyl)acetic Acid], on human H1R [1], the “KE” value turned out to be 0.24. For the same compound, the “pKD,calc” value at human H1R [1] (mean and SEM, N ≥ 3) is reported as 6.8 ± 0.2. Also, the off-rate constant (koff) on human H1R [1] (setting [3]) is 0.00283 s⁻¹. Besides, at human H1R [1] (read-out: kon (converted)), the on-rate constant (kon) is 21700 M⁻¹ s⁻¹. The negative logarithm of the Ki (pKi) on human H1R [2] came out at 6.9 ± 0.1.
Regarding `O=C(O)CCCCN1CCC(Oc2ccccc2Cc2ccccc2)CC1` [4c, 5-(4-(2-Benzylphenoxy)piperidin-1-yl)pentanoic Acid Hydrochloride], the “KE” value at human H1R [1] is given as 0.85. The “pKD,calc” value at human H1R [1] (mean and SEM, N ≥ 3) is 7.9 ± 0.1. Also, the “increase in RT relative to 1” value on human H1R [1] (setting [5]) was above 10 fold. The off-rate constant (koff) at human H1R [1] (setting [3]) is 0.00075 s⁻¹. The on-rate constant (kon) on human H1R [1] (read-out: kon (converted)) is 53300 M⁻¹ s⁻¹. In addition, the pKi on human H1R [2] was determined as 7.8 ± 0.1.
As to `c1ccc(Cc2ccccc2OC2CCN(CCCCc3nnn[nH]3)CC2)cc1` [compound 27, 1-(4-(1H-Tetrazol-5-yl)butyl)-4-(2-benzylphenoxy)piperidine], the “KE” value at human H1R [1] stood at 1.66. Besides, at human H1R [1] (mean and SEM, N ≥ 3), the “pKD,calc” value is on record as 8.2 ± 0.02. The dissociation rate constant (koff) at human H1R [1] (setting [3]) was 0.00035 s⁻¹. The on-rate (kon) on human H1R [1] (read-out: kon (converted)) was 61700 M⁻¹ s⁻¹. This compound also had a negative-log Ki (pKi) at human H1R [2] of 8.1 ± 0.1.
`CN(C)CC/C=C1/c2ccccc2COc2ccc(CC(=O)O)cc21` [Olopatadine, olopatadine, reference compound]: at human H1R [1], the “increase in RT compared to first-generation analog” value turned out to be 7 fold.
For `O=C(O)CCCCCN1CCC(Oc2ccccc2Cc2ccccc2)CC1` [4d, 6-(4-(2-Benzylphenoxy)piperidin-1-yl)hexanoic Acid Hydrochloride], at human H1R [1], the “KE” value is reported as 0.61. For the same compound, at human H1R [1] (mean and SEM, N ≥ 3), the “pKD,calc” value was 7.7 ± 0.1. Moreover, the off-rate constant (koff) at human H1R [1] (setting [3]) is 0.001 s⁻¹. Moreover, the kon on human H1R [1] (read-out: kon (converted)) is 66700 M⁻¹ s⁻¹. On human H1R [2], this compound showed a pKi of 7.8 ± 0.0.
As to `CN1CCC(Oc2cc(/C=C/C(=O)O)ccc2Cc2ccccc2)CC1` [2c, (E)-3-(4-Benzyl-3-((1-methylpiperidin-4-yl)oxy)phenyl)acrylic Acid], at human H1R [1], the “KE” value stood at 0.69. In addition, at human H1R [1] (mean and SEM, N ≥ 3), the “pKD,calc” value is reported as 7.0 ± 0.0. In addition, the “increase in RT relative to 1” value on human H1R [1] (setting [5]) is recorded as 9 fold. For the same compound, the dissociation rate constant (koff) on human H1R [1] (setting [3]) is 0.000917 s⁻¹. On human H1R [1] (read-out: kon (converted)), the kon is 10300 M⁻¹ s⁻¹. The compound further registered a negative logarithm of the Ki (pKi) at human H1R [2] of 6.5 ± 0.1.
